Laboratory results as given in article PMC7822065, “Discovery of indole-3-butyric acid derivatives as potent histone deacetylase inhibitors” (Journal of Enzyme Inhibition and Medicinal Chemistry, 2021).

Assays:
A549 cells = test: MTT antiproliferative assay, A549; type: cell-based; conditions: Homo sapiens, lung cancer
Description: (§1) The stock solutions of tested compounds were diluted with culture medium. […] Then, the cells were treated with compound sample at various concentrations for 48 h. Afterward, […] working solution (5 mg/ml) was added to each well and incubated for another 4 h. After incubation, the […] formed from MTT was extracted by adding DMSO (200 µl). The optical density (OD) at 490 nm and 630 nm were measured by Universal Microplate Spectrophotometer. […] The IC50 values were calculated with Origin 7.5 software (Originlab Corporation, Northampton, MA), and standard deviations of the IC50 values were obtained through at least 3 independent experiments.

Calu-3 cells = test: MTT antiproliferative assay, Calu-3; type: cell-based; conditions: Homo sapiens, lung cancer
Description: as §1

SPC-A-1 cells = test: MTT antiproliferative assay, SPC-A-1; type: cell-based; conditions: SPCA1, lung cancer
Description: as §1

H322 cells = test: MTT antiproliferative assay, H322; type: cell-based; conditions: NCI-H322, lung cancer
Description: as §1

H1299 cells = test: MTT antiproliferative assay, H1299; type: cell-based; conditions: Homo sapiens, NCI-H1299, lung cancer
Description: as §1

MDA-MB-231 cells = test: MTT antiproliferative assay, MDA-MB-231; type: cell-based; conditions: Homo sapiens, breast carcinoma
Description: as §1

MCF-7 cells = test: MTT antiproliferative assay, MCF-7; type: cell-based; conditions: Homo sapiens, MCF7, breast carcinoma
Description: as §1

MDA-MB-468 cells = test: MTT antiproliferative assay, MDA-MB-468; type: cell-based; conditions: Homo sapiens, breast carcinoma
Description: as §1

LoVo cells = test: MTT antiproliferative assay, LoVo; type: cell-based; conditions: Homo sapiens, colon carcinoma
Description: as §1

Colo205 cells = test: MTT antiproliferative assay, Colo205; type: cell-based; conditions: Homo sapiens, COLO 205, colon carcinoma
Description: as §1

A2780 cells = test: MTT antiproliferative assay, A2780; type: cell-based
Description: The stock solutions of tested compounds were diluted with culture medium. Briefly, the cells were seeded into each well of 96-well plate, which were incubated at 37 °C, 5% CO2 until confluency 90–95%. Then, the cells were treated with compound sample at various concentrations for 48 h. Afterward, […] working solution (5 mg/ml) was added to each well and incubated for another 4 h. After incubation, the […] formed from MTT was extracted by adding DMSO (200 µl). The optical density (OD) at 490 nm and 630 nm were measured by Universal Microplate Spectrophotometer. […] The IC50 values were calculated with Origin 7.5 software (Originlab Corporation, Northampton, MA), and standard deviations of the IC50 values were obtained through at least 3 independent experiments.
A series of tumour cell lines including the lung cancer A549, Calu-3, SPC-A-1, H322, H1299, breast cancer MDA-MB-231, MCF-7, MDA-MB-468, colon carcinoma LoVo, Colo205, ovarian cancer A2780, SKOV3, gastric cancer MKN45, pancreatic cancer PNAC-1, leukemic K562, and multiple myeloma OPM2 cells were cultured for the antiproliferative assay of active compound I13. In the present study, molecule I13 could inhibit the growth of both solid and haematologic tumour cell lines (Table 4). […]. The antiproliferative activity of molecule I13 was considered to be restricted by the poor enzyme inhibitory selectivity. Enhancement of selectivity could be a useful strategy to improve the anticancer activity of this group of HDACIs.

SKOV3 cells = test: MTT antiproliferative assay, SKOV3; type: cell-based; conditions: Homo sapiens, SK-OV-3, ovarian cancer
Description: as §1

MKN45 cells = test: MTT antiproliferative assay, MKN45; type: cell-based; conditions: Homo sapiens, MKN-45, gastric cancer
Description: as §1

PNAC-1 cells = test: MTT antiproliferative assay, PNAC-1; type: cell-based
Description: as §1

K562 cells = test: MTT antiproliferative assay, K562; type: cell-based; conditions: Homo sapiens, leukemia
Description: as §1

OPM2 cells = test: MTT antiproliferative assay, OPM2; type: cell-based; conditions: Homo sapiens, OPM-2, multiple myeloma
Description: as §1

Water solubility = type: physicochemical
U937 cells = test: MTT antiproliferative assay, U937; conditions: Homo sapiens, U-937, 48 h, read-out: U937 IC50
Description: (§2) The stock solutions of tested compounds were diluted with culture medium. […] Then, the cells were treated with compound sample at various concentrations for 48 h. Afterward, 20 MTT working solution (5 mg/ml) was added to each well and incubated for another 4 h. After incubation, the medium formed from MTT was extracted by adding DMSO (200 µl). The optical density (OD) at 490 nm and 630 nm were measured by Universal Microplate Spectrophotometer. […] The IC50 values were calculated with Origin 7.5 software (Originlab Corporation, Northampton, MA), and standard deviations of the IC50 values were obtained through at least 3 independent experiments.

U266 cells = test: MTT antiproliferative assay, U266
Description: as §2
To evaluate the antiproliferative activity of hydroxamic acid containing molecules, MTT assays were performed using U937, U266, and HepG2 cell lines.

HepG2 cells [1] = test: MTT antiproliferative assay, HepG2
Description: as §2

[2] = system: HDACs (HeLa nucleus extract containing a mixture of HDAC isoforms); test: HDAC inhibitory assay with HeLa nucleus extract; conditions: at the concentration of 1 µM
HDAC1 = HDAC1 (Homo sapiens, UniProt Q13547); test: In vitro HDACs inhibitory assay, recombinant HDAC1
Sequence of HDAC1 (Q13547 whole entry): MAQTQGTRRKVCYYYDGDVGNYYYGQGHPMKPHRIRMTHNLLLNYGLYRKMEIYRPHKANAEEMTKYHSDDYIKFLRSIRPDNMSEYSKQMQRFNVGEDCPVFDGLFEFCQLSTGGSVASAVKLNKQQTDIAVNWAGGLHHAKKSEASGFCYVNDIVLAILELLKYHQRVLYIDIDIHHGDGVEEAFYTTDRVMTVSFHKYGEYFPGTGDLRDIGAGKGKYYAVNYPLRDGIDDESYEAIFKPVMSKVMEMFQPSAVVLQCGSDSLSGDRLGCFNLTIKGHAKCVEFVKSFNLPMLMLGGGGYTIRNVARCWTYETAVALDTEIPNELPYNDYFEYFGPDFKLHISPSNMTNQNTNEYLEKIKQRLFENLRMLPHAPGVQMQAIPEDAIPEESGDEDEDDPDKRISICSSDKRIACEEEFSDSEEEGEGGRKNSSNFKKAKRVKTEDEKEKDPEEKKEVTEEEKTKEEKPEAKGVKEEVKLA
Description: (§3) All of the HDAC enzymes were purchased from BPS Bioscience (San Diego, CA). Briefly, 20 μl of HeLa nucleus extract or recombinant HDAC enzyme solution was mixed with various concentrations of tested compound (20 μl). The mixture was incubated at 30 °C for 1 h (for the time-dependent assay, the mixture was incubated for 15, 30, 60, and 90 min, respectively), then 10 μl of fluorogenic substrate (Boc-Lys (acetyl)-AMC (3 mM) for HDAC1, 2, 3, and 6, Boc-Lys (trifluoroacetyl)-AMC (3 mM) for HDAC 4, 7, 8, and 9) was added. After incubation at 30 °C for 2 h, the catalytic reaction was stopped by addition of 10 μl of developer containing trypsin and trichostatin A (TSA). After 30 min, fluorescence intensity was measured using a microplate reader at excitation and emission wavelengths of 360 and 460 nm, respectively. The inhibition ratios were calculated from the fluorescence intensity readings of tested wells relative to those of control wells, and the IC50 curves and values were determined by GraphPad Prism 6.0 software (La Jolla, CA).

HDAC2 = HDAC2 (Homo sapiens, UniProt Q92769); test: In vitro HDACs inhibitory assay, recombinant HDAC2
Sequence of HDAC2 (Q92769 whole entry): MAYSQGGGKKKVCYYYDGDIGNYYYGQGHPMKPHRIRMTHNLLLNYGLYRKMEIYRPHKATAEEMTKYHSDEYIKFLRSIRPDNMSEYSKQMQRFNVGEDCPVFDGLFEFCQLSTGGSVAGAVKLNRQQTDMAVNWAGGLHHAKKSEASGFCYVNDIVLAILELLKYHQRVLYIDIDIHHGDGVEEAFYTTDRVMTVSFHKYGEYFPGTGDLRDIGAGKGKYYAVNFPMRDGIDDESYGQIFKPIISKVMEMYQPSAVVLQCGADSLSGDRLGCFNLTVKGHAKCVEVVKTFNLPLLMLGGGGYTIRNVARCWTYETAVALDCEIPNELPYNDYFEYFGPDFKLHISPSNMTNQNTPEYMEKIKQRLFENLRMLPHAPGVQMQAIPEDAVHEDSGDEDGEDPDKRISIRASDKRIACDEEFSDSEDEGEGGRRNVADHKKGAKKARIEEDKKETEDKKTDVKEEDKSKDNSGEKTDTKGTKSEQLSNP
Description: as §3

HDAC3 = HDAC3 (Homo sapiens, UniProt O15379); test: In vitro HDACs inhibitory assay, recombinant HDAC3
Sequence of HDAC3 (O15379 whole entry): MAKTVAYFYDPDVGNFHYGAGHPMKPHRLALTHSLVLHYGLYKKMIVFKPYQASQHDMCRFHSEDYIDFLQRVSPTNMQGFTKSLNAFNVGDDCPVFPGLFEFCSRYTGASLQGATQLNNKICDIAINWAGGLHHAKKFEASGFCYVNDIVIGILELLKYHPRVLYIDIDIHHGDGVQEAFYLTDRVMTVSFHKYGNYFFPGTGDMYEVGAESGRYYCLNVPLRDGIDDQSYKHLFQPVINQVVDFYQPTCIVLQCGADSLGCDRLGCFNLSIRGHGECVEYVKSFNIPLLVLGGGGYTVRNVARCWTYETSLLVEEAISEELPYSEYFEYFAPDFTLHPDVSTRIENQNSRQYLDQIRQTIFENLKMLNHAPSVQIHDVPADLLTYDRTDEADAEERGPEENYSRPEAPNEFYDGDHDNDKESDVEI
Sequence of HDAC3 (Q9Y618 395-489 partner limits assumed): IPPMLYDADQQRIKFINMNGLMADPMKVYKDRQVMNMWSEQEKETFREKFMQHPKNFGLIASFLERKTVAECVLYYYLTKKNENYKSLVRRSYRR
Description: as §3

HDAC4 = HDAC4 (Homo sapiens, UniProt P56524); test: In vitro HDACs inhibitory assay, recombinant HDAC4
Sequence of HDAC4 (P56524 whole entry): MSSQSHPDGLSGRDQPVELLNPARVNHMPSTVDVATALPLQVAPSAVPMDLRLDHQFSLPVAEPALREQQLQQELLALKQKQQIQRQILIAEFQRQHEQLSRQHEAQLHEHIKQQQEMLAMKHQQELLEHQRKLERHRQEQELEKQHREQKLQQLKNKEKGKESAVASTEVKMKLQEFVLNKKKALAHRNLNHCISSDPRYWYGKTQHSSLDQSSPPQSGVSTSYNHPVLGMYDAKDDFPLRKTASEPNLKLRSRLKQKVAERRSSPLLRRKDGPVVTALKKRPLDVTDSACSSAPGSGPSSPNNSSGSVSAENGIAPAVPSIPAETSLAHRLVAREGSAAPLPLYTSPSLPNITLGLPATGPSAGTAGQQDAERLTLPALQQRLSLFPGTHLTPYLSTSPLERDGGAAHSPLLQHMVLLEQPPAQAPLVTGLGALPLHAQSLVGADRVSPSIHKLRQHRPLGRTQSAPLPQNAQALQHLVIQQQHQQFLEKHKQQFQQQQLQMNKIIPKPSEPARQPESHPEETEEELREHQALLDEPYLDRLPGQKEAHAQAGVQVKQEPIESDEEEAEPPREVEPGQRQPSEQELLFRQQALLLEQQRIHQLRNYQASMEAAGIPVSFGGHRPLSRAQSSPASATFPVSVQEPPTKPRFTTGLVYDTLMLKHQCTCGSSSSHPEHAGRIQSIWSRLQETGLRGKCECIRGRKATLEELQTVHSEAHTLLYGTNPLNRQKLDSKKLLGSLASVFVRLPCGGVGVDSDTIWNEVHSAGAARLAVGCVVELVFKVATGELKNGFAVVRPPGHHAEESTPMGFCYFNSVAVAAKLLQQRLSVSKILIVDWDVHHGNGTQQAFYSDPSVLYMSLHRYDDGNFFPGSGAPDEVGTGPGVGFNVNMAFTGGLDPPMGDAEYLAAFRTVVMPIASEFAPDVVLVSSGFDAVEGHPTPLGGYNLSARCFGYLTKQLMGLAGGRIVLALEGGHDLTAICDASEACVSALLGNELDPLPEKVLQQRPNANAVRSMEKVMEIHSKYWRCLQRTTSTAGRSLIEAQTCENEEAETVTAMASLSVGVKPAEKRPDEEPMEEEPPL
Description: as §3

HDAC6 = HDAC6 (Homo sapiens, UniProt Q9UBN7); test: In vitro HDACs inhibitory assay, recombinant HDAC6
Description: as §3

HDAC7 = HDAC7 (Homo sapiens, UniProt Q8WUI4); test: In vitro HDACs inhibitory assay, recombinant HDAC7
Sequence of HDAC7 (Q8WUI4 whole entry): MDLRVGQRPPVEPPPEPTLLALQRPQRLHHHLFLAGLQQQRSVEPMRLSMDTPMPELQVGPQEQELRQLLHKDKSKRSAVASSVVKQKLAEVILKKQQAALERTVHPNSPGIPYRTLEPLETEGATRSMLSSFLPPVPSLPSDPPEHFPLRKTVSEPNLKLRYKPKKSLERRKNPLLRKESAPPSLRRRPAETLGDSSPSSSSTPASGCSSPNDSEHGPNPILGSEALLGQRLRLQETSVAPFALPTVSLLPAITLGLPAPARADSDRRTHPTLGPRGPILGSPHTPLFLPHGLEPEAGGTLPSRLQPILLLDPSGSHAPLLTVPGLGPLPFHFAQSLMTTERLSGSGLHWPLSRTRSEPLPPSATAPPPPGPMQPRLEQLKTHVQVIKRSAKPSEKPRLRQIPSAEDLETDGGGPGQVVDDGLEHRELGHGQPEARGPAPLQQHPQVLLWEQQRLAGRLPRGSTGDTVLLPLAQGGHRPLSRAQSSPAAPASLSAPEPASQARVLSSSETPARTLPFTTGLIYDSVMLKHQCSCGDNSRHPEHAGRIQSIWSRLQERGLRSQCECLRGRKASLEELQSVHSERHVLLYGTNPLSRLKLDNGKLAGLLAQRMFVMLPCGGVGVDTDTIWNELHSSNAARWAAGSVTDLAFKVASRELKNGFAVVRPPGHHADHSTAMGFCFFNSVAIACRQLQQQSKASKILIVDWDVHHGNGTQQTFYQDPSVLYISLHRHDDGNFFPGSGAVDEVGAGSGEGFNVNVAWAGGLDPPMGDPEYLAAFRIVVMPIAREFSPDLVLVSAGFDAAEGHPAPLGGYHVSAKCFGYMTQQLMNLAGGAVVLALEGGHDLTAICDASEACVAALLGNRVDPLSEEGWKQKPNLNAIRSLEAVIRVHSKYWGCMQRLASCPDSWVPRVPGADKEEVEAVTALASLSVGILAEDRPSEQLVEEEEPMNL
Description: as §3

HDAC8 = HDAC8 (Homo sapiens, UniProt Q9BY41); test: In vitro HDACs inhibitory assay, recombinant HDAC8
Sequence of HDAC8 (Q9BY41 whole entry): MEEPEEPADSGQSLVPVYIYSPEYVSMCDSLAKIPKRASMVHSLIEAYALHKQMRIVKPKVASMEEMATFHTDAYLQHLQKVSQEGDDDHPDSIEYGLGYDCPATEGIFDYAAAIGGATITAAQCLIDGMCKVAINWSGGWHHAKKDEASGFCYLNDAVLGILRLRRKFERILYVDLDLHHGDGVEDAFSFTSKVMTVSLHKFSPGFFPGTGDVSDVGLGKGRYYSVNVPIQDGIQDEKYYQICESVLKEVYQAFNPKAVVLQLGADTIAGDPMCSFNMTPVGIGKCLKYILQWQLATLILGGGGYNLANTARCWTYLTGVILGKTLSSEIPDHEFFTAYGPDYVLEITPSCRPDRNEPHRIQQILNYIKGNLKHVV
Description: as §3

HDAC9 = HDAC9 (Homo sapiens, UniProt Q9UKV0); test: In vitro HDACs inhibitory assay, recombinant HDAC9
Sequence of HDAC9 (Q9UKV0 whole entry): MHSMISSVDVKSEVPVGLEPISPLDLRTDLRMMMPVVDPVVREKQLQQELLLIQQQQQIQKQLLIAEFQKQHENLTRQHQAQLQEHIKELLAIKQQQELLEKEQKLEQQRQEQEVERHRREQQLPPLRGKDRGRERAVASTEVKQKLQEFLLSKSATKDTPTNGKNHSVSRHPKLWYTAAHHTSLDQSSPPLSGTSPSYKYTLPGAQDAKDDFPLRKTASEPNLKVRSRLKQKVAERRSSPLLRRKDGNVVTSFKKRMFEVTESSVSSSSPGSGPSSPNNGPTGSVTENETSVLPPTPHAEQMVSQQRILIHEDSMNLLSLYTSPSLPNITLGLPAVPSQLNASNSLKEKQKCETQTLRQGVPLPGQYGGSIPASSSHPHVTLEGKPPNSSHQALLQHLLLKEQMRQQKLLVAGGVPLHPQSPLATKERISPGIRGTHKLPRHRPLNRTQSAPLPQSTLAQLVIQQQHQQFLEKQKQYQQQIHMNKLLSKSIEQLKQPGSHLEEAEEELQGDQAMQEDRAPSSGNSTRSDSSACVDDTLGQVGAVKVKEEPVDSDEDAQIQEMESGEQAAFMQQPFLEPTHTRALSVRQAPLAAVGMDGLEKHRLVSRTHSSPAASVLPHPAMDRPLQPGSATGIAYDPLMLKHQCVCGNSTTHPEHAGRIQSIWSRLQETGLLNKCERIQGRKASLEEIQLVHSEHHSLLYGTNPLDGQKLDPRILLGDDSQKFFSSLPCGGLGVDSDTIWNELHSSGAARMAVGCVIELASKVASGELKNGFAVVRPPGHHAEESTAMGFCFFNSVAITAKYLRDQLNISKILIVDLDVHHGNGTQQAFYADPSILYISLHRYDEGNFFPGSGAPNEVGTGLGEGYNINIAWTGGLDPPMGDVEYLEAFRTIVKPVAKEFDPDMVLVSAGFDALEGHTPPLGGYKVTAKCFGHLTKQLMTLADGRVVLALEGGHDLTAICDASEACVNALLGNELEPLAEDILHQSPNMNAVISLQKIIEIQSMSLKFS
Description: as §3

HepG2 cells [3] = test: Annexin V/PI cell apoptosis assay (flow cytometry); conditions: annexin V-FITC/PI
Description: After 10 min of incubation, 1 µl PI was added to each sample and mixed gently. After incubation at room temperature for another 20 min in the dark, cells were subjected to flow cytometer (CytoFLEX, Beckman Coulter, Brea, CA).

SMILES: Cn1cc(CCCC(=O)Nc2ccc(C(=O)NO)cc2)c2ccccc21 [Compound I13, 4-(4-(1-Methyl-1H-indol-3-yl)butanamido)-N-hydroxybenzamide]
- IC50 (A549 cells): 3.15 µM
- IC50 (Calu-3 cells): 1.26 µM
- IC50 (SPC-A-1 cells): 0.81 µM
- IC50 (H322 cells): 14.9 µM
- IC50 (H1299 cells): 7.67 µM
- IC50 (MDA-MB-231 cells): 0.78 µM
- IC50 (MCF-7 cells): 6.34 µM
- IC50 (MDA-MB-468 cells): 1.34 µM
- IC50 (LoVo cells): 2.19 µM
- IC50 (Colo205 cells): 2.42 µM
- IC50 (A2780 cells; Homo sapiens, A2780, ovarian cancer, MTT, read-out: A2780 IC50): 4.6 µM
- fold more active than SAHA, A2780 cells (A2780 cells; ratio of IC50 values): 5.9 fold
- IC50 (SKOV3 cells): 1.44 µM
- IC50 (MKN45 cells): 18.2 µM
- IC50 (PNAC-1 cells; pancreatic cancer, MTT): 1.17 µM
- fold more active than SAHA, PNAC-1 cells (PNAC-1 cells; ratio of IC50 values): 5.6 fold
- IC50 (K562 cells): 2.87 µM
- IC50 (OPM2 cells): 0.23 µM
- water solubility (Water solubility): good water solubility
- toxic signs in liver and spleen (HepG2 xenograft; 50 mg/kg/d intragastric, 16 days): no obvious toxic signs in liver and spleen were detected
- tumour inhibitory ratio (HepG2 xenograft; 50 mg/kg/d intragastric, 16 days, HepG2 xenograft): 33.1%
- mean weight of tumours (HepG2 xenograft; 50 mg/kg/d intragastric, 16 days, HepG2 xenograft, n = 7): 0.303 g
- mice body weight loss (HepG2 xenograft; mouse, in vivo): No evidence of mice body weight (measured every two days) loss
- IC50 (U937 cells): 0.93 ± 0.08 µM
- IC50 (U266 cells; Homo sapiens, U-266, 48 h, read-out: U266 IC50): 0.16 ± 0.04 µM
- fold more active than SAHA, U266 cells (U266 cells; ratio of IC50 values): 5.5 fold
- IC50 (HepG2 cells [1]; Homo sapiens, HepG2, 48 h, read-out: HepG2 IC50): 1.85 ± 0.31 µM
- fold more active than SAHA, HepG2 cells (HepG2 cells [1]; ratio of IC50 values): 4.7 fold
- HDACs, percentage inhibition rate (PIR) [2]: 82.19 ± 1.60%
- IC50 (HDAC1): 0.0139 µM
- IC50 (HDAC2): 0.0499 µM
- IC50 (HDAC3): 0.0121 µM
- IC50 (HDAC4): > 5 µM
- IC50 (HDAC6): 0.00771 µM
- IC50 (HDAC7): 0.326 µM
- IC50 (HDAC8): 0.284 µM
- IC50 (HDAC9): > 5 µM
- ratio of apoptotic cells (HepG2 cells [3]; HepG2, 0.2 µM, 24 h): 11.56%
- flow cytometry quadrant Q1-LL (HepG2 cells [3]; HepG2, 0.2 μM): 88.42%
- flow cytometry quadrant Q1-LR (HepG2 cells [3]; HepG2, 0.2 μM): 6.12%
- flow cytometry quadrant Q1-UL (HepG2 cells [3]; HepG2, 0.2 μM): 0.02%
- flow cytometry quadrant Q1-UR (HepG2 cells [3]; HepG2, 0.2 μM): 5.44%
- flow cytometry quadrant Q1-LL (HepG2 cells [3]; HepG2, 0.8 μM): 67.38%
- flow cytometry quadrant Q1-LR (HepG2 cells [3]; HepG2, 0.8 μM): 21.27%
- flow cytometry quadrant Q1-UL (HepG2 cells [3]; HepG2, 0.8 μM): 0.07%
- flow cytometry quadrant Q1-UR (HepG2 cells [3]; HepG2, 0.8 μM): 11.28%
